Assay results as given in PMC2593051, “Biochemical and Genetic Characterization of PspE and GlpE, Two Single-domain Sulfurtransferases of Escherichia coli” (The Open Microbiology Journal, 2008).
Structures can show the parent of a compound that is named as a salt. Values belong to the molecule of their own block, whether it stands above or below them.

How the values were obtained:
PspE (fraction PspE2) [1] = biological target: T1, PspE (fraction PspE2) (Escherichia coli, UniProt P23857); assay: chemical inactivation by cysteine reagent; assay type: biochemical; conditions: covalent; active-site cysteine; fraction PspE1 more tolerant than PspE2; data not shown
T1 construct: 85 residues, 9428 Da; untagged; overexpressed from pHC4.1 (pT7-7) in E. coli BL21(DE3), freeze-thaw extract, SP cation exchange; partly persulfide/sulfonate modified at single cysteine
T1 sequence (P23857 20-104): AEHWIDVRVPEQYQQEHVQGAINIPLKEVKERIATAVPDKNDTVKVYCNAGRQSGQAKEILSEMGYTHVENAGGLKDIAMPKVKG

PspE (fraction PspE2) [2] = biological target: T1, PspE (fraction PspE2); assay: rhodanese assay; assay type: biochemical; conditions: Tris-acetate pH 8.6; for % inhibition at 0.25 M: 250000 µM, anion inhibition
purified protein [3] = substrate: OC(CS)C(O)CS; assay: purified protein; assay type: biochemical, Escherichia coli; conditions: sulfur acceptor, 4 mM or 10 mM thiosulfate, Tris-acetate pH 8.6, PspE fraction not stated
purified protein [4] = substrate: O=S(O)(O)=S; assay: purified protein; assay type: biochemical, Escherichia coli; conditions: pH 8.6; 25.0 °C

Molecule: O=C(O)c1cc(SSc2ccc([N+](=O)[O-])c(C(=O)O)c2)ccc1[N+](=O)[O-] [5,5’-dithio-bis(2-nitrobenzoic acid)]
chemical inactivation by cysteine reagent (PspE (fraction PspE2) [1]): PspE1 was much more tolerant to chemical inactivation by the cysteine-modifying reagent

% inhibition at 0.25 M (PspE (fraction PspE2) [2]): ~ 65%
Molecule: O=P(O)(O)O [sodium phosphate]

Molecule: O=S(=O)(O)O [sodium sulfate]
% inhibition at 0.25 M (PspE (fraction PspE2) [2]): ~ 50%

% inhibition at 1 mM (PspE (fraction PspE2) [2]; rhodanese product as inhibitor, data not shown): > 50%
Molecule: O=S(O)O [sodium sulfite]

B1: PspE (fraction PspE2) (Escherichia coli K-12) (protein)
chain: T1 sequence (P23857 20-104)
notes: 85 residues, 9428 Da; untagged; overexpressed from pHC4.1 (pT7-7) in E. coli BL21(DE3), freeze-thaw extract, SP cation exchange; partly persulfide/sulfonate modified at single cysteine
Km (purified protein [3]): 10 mM | Km (purified protein [4]): 2.7 mM | kcat (purified protein [4]): 64 s⁻¹
